Measured values: ChEMBL document CHEMBL3526103, “Prediction of in vivo hepatic clearance and half-life of drug candidates in human using chimeric mice with humanized liver” (Drug Metab Dispos, 2012)

Tests used:
[1] = Intrinsic clearance in human hepatocytes from chimeric mouse with humanized liver assessed per 10^6 cells at 10 uM after 0.25 to 2 hrs by LC-MS/MS method; assay type: ADME, cell-based, Hepatocyte; conditions: read-out: CLH
[2] = Unbound fraction in po dosed human plasma; assay type: ADME, organism-based
[3] = Oral clearance in po dosed human; assay type: ADME, organism-based; conditions: in vivo
[4] = Ratio of drug level in blood to plasma in po dosed human; assay type: ADME, organism-based; conditions: blood and plasma, read-out: Rblood_plasma
in vivo = conditions: mouse, iv, 3 mg/kg
[5] = Total clearance in chimeric mouse with humanized liver at 3 mg/kg, iv by LC-MS/MS method; assay type: ADME, organism-based; design: dose 3 mg/kg, route intravenous; conditions: in vivo
[6] = Unbound fraction in iv dosed human plasma; assay type: ADME, organism-based
clinical = conditions: human, in vivo, iv
Description: Total clearance in iv dosed human

[7] = Total clearance in chimeric mouse with humanized liver at 0.3 mg/kg, iv by LC-MS/MS method; assay type: ADME, organism-based; design: dose 0.3 mg/kg, route intravenous; conditions: in vivo

Row | SMILES | hepatocyte CLint at 10 µM [1] | fraction unbound [2] | CL/F [3] | blood plasma ratio [4] | half-life (in vivo) | clearance [5] | fraction unbound [6] | clearance (clinical) | clearance [7]
1 | Nc1ncc2ncn(CCC(CO)CO)c2n1 [6-DEOXY PENCICLOVIR] | 5.3 µL/min/1e6 cells | 1 | 118 mL/min/kg | 1.2 | 6 min | 71.2 mL/min/kg | – | – | –
2 | CC(C)(C)NCC(O)c1ccc(O)c(CO)c1 (stereo not drawn) [ALBUTEROL] | – | – | – | – | – | – | 0.925 | – | –
3 | O=S(=O)(c1cccc2cnccc12)N1CCCNCC1 [FASUDIL] | – | – | – | – | – | – | 0.51 | – | –
4 | CN1CCN2c3ncccc3Cc3ccccc3C2C1 (stereo not drawn) [MIRTAZAPINE] | 6.3 µL/min/1e6 cells | – | – | – | – | 30.4 mL/min/kg | – | – | –
5 | O=C(O)Cc1ccccc1Nc1c(Cl)cccc1Cl [DICLOFENAC] | 24.7 µL/min/1e6 cells | – | – | – | 36 min | 16.4 mL/min/kg | – | – | –
6 | CC(=O)C[C@@H](c1ccccc1)c1c(O)c2ccccc2oc1=O | 1.2 µL/min/1e6 cells | – | – | – | – | – | 0.015 | 0.055 mL/min/kg | 0.2 mL/min/kg
7 | CCN(C(C)=O)c1cccc(-c2ccnc3c(C#N)cnn23)c1 [ZALEPLON] | 2.3 µL/min/1e6 cells | – | – | – | – | 48.1 mL/min/kg | – | – | –
8 | CC1=C(CC(=O)O)c2cc(F)ccc2/C1=C\c1ccc([S+](C)[O-])cc1 (stereo not drawn) | 2 µL/min/1e6 cells | 0.069 | 3.3 mL/min/kg | 1 | 72 min | 5.6 mL/min/kg | – | – | –
9 | Nc1ccc(S(=O)(=O)c2ccc(N)cc2)cc1 [DAPSONE] | 2.3 µL/min/1e6 cells | – | – | – | – | 2.1 mL/min/kg | – | – | –
10 | Nc1nnc(-c2cccc(Cl)c2Cl)c(N)n1 [LAMOTRIGINE] | 1.4 µL/min/1e6 cells | 0.45 | 0.3 mL/min/kg | 1 | 606 min | 1.4 mL/min/kg | – | – | –
